{
  "source": "patent US20230192588A1",
  "about": "“CANNABIDIOLIC ACID (CBDA) DERIVATIVES AND USES THEREOF” (YISSUM RESEARCH DEVELOPMENT COMPANY OF THE HEBREW …, priority 2020, published 2023)",
  "origin": "cited, not measured here",
  "key": {"rats [1]": {"system": "rats", "conditions": "compared to CBDA, 5-HT1A receptor-dependent manner"}, "rats [2]": {"system": "rats", "conditions": "compared to CBDA, 5-HT1A receptor-dependent manner", "remark": "listed apart in the source"}, "rat models": {"system": "rat models", "conditions": "oral ingestion of a low dose (1 mg/kg); two rat models"}},
  "data": [
    {"smiles": "C=C(C)[C@@H]1CCC(C)=C[C@H]1c1c(O)cc(CCCCC)c(C(=O)OC)c1O", "note": "[HU-580, cannabidiolic acid methyl ester]", "values": [
      {"measurement": "potency in suppressing signs of stress-induced anxiety", "setting": "rats [1]", "value": "greater potency than CBDA"},
      {"measurement": "potency in suppressing signs of both acute and anticipatory nausea", "setting": "rats [2]", "value": "greater potency than CBDA"},
      {"measurement": "anti-depressant effect", "setting": "rat models", "value": "potent anti-depressant effect"}
    ]}
  ]
}
